“Also recorded” adds a separate entry of the source. Where two headings read alike, the source gives them in different places.
Assays:
rTRPV4 = biological target: T1, rTRPV4 (Rattus norvegicus, UniProt Q9ERZ8); assay: TRPV4 calcium influx assay (Fluo-4) in HEK-293 cells overexpressing rat recombinant TRPV4; type: cell-based; settings: for IC50: against the effect of GSK1016790A (10 nM) after a 5-min pre-incubation, read-out: IC50 inh. TRPV4; for Efficacy %: as percent of the effect of ionomycin (4 µM), HEK-293 cells overexpressing rTRPV4, means ± SEM, n >= 3
T1 construct: expressed in transfected cells; host or cells: HEK-293
Source text: The interaction properties of all homodrimane-derived compounds 1–16, 18–19, and 22–25 with either TRPV type-4 or type-1 were studied in human embryonic kidney (HEK)-293 cells overexpressing either the rat recombinant type-4 (rTRPV4), which shares with the human orthologue ~95% of sequence identity, and the human recombinant type-1 (hTRPV1) channel, evaluating the changes in intracellular calcium levels. […] Cell fluorescence before and after the addition of various concentrations of test compounds was measured normalizing the effects against the response to ionomycin (4 μM). […] Dose-response curve fitting (sigmoidal dose-response variable slope) and parameter estimation were performed with Graph-Pad Prism8® (GraphPad Software Inc., San Diego, CA, USA). All determinations were performed at least in triplicate.

hTRPV1 = biological target: T2, hTRPV1 (Homo sapiens, UniProt Q8NER1); assay: TRPV1 calcium influx assay (Fluo-4) in HEK-293 cells overexpressing human recombinant TRPV1; type: cell-based; settings: for Efficacy %: as percent of the effect of ionomycin (4 µM), HEK-293 cells overexpressing hTRPV1, means ± SEM, N >= 3; for IC50: read-out: IC50 inh TRPV1; for EC50: activation, NA = not active (efficacy lower than 10%), read-out: Potency EC50
T2 construct: expressed in transfected cells; host or cells: HEK-293

[1] = activation, half-maximal increase in [Ca2+]i, NA = not active (efficacy lower than 10%), read-out: Potency EC50

T1 sequence (Q9ERZ8 whole entry): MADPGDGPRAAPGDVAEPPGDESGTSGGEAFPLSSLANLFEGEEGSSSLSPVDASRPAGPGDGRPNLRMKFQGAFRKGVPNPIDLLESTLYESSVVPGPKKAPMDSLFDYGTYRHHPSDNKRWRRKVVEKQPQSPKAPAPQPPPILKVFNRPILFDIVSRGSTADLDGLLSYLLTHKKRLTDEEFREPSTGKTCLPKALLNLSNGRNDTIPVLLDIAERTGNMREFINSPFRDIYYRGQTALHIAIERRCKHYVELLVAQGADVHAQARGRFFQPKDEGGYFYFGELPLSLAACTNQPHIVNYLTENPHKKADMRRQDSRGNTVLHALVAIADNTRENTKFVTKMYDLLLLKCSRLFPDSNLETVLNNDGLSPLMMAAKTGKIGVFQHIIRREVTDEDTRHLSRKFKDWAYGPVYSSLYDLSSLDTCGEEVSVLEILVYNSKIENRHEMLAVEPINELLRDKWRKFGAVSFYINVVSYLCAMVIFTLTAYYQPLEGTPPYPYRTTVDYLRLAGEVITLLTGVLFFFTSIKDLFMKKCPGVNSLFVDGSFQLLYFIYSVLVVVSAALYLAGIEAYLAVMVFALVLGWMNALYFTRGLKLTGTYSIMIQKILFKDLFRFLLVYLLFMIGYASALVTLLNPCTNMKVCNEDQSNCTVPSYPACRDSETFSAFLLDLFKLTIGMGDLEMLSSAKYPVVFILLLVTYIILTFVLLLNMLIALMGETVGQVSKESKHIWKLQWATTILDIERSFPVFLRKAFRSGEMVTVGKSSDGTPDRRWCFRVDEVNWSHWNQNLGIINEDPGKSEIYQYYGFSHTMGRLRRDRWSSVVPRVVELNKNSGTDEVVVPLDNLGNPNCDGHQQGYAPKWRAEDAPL
T2 sequence (Q8NER1 whole entry): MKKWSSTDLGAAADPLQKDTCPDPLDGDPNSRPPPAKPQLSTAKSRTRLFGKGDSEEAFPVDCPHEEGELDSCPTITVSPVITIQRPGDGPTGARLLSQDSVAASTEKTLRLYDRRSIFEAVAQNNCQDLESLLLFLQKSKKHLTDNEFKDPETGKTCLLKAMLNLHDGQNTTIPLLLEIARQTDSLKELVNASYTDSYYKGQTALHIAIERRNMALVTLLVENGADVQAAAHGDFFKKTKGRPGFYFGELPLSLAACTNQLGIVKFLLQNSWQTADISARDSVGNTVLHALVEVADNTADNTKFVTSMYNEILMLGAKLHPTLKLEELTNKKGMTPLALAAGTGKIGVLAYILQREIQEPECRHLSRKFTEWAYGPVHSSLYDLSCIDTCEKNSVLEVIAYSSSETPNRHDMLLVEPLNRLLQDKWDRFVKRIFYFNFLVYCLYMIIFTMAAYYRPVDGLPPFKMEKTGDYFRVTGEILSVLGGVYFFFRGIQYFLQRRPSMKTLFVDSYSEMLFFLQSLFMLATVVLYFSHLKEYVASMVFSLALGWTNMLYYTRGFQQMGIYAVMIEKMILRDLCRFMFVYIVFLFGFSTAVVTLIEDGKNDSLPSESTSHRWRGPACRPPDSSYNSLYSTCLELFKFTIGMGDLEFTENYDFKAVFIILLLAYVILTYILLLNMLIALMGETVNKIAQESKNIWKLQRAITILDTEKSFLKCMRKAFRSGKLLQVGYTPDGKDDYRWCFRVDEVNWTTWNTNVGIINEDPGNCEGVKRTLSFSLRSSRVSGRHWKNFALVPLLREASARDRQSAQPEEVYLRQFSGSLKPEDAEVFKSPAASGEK

SMILES | IC50 (rTRPV4) [µM] | Efficacy % (rTRPV4) [%] | Efficacy % (hTRPV1) [%] | IC50 (hTRPV1) [µM] | activity on rTRPV4 in words (rTRPV4) | EC50 (rTRPV4; [1]) [µM] | EC50 (hTRPV1) [µM] | melting point [°C] | activity on hTRPV1 in words (hTRPV1) | EC50 (rTRPV4) [µM]
CC1(C)CCC[C@]2(C)[C@@H](CC(=O)Nc3ccccc3)[C@](C)(O)CC[C@@H]12 [Compound 1, 2-((1R,2R,4aS,8aS)-2-Hydroxy-2,5,5,8a-tetramethyldecahydronaphthalen-1-yl)-N-phenylacetamide] | > 100 | <10 | 33.6 ± 0.8 | > 100 | – | – | – | – | – | –
CC1(C)CCC[C@]2(C)[C@@H](CC(=O)Nc3cc(F)ccc3F)[C@](C)(O)CC[C@@H]12 [Compound 2, N-(2,5-difluorophenyl)-2-((1R,2R,4aS,8aS)-2-hydroxy-2,5,5,8a-tetramethyldecahydronaphthalen-1-yl)acetamide] | > 100 | <10 | – | > 100 | – | – | – | – | – | –
CC1(C)CCC[C@]2(C)[C@@H](CC(=O)Nc3ccccc3-n3cccc3)[C@](C)(O)CC[C@@H]12 [Compound 3, N-(2-(1H-pyrrol-1-yl)phenyl)-2-((1R,2R,4aS,8aS)-2-hydroxy-2,5,5,8a-tetramethyldecahydronaphthalen-1-yl)acetamide] | 6 ± 0.1 | 14.6 ± 1.5 | 32.0 ± 1.2 | > 100 | good rTRPV4 agonist | 1.1 ± 1 | 4.7 ± 0.4 | – | – | –
CC1(C)CCC[C@]2(C)[C@@H](CC(=O)NCc3ccccc3)[C@](C)(O)CC[C@@H]12 [Compound 4, N-benzyl-2-((1R,2R,4aS,8aS)-2-hydroxy-2,5,5,8a-tetramethyldecahydronaphthalen-1-yl)acetamide] | 32 ± 0.8 | <10 | 36.8 ± 0.2 | – | – | – | – | – | – | –
CC1(C)CCC[C@]2(C)[C@@H](CC(=O)NCc3ccc(Cl)cc3)[C@](C)(O)CC[C@@H]12 [Compound 5, N-(4-chlorobenzyl)-2-((1R,2R,4aS,8aS)-2-hydroxy-2,5,5,8a-tetramethyldecahydronaphthalen-1-yl)acetamide] | 7.7 ± 0.3 | <10 | – | > 100 | – | – | – | – | – | –
CC1(C)CCC[C@]2(C)[C@@H](CC(=O)NCc3ccc(F)cc3)[C@](C)(O)CC[C@@H]12 [Compound 7, N-(4-fluorobenzyl)-2-((1R,2R,4aS,8aS)-2-hydroxy-2,5,5,8a-tetramethyldecahydronaphthalen-1-yl)acetamide] | 16.9 ± 0.8 | 15.8 ± 0.8 | 24.5± 0.2 | > 50 | – | 13.4 ± 2.6 | 9.9 ± 0.1 | 135 to 136 | – | –
COc1ccc(CNC(=O)C[C@@H]2[C@@]3(C)CCCC(C)(C)[C@@H]3CC[C@@]2(C)O)cc1 [Compound 8, 2-((1R,2R,4aS,8aS)-2-hydroxy-2,5,5,8a-tetramethyldecahydronaphthalen-1-yl)-N-(4-methoxybenzyl)acetamide] | 29.7 ± 0.7 | <10 | 19.7 ± 1.1 | > 100 | – | – | – | – | – | –
COc1cccc(CNC(=O)C[C@@H]2[C@@]3(C)CCCC(C)(C)[C@@H]3CC[C@@]2(C)O)c1 [Compound 9, 2-((1R,2R,4aS,8aS)-2-hydroxy-2,5,5,8a-tetramethyldecahydronaphthalen-1-yl)-N-(3 methoxybenzyl)acetamide] | 18.1 ± 0.2 | <10 | – | > 100 | – | – | – | – | – | –
CC1(C)CCC[C@]2(C)[C@@H](CC(=O)NCCc3ccccc3)[C@](C)(O)CC[C@@H]12 [Compound 10, 2-((1R,2R,4aS,8aS)-2-hydroxy-2,5,5,8a-tetramethyldecahydronaphthalen-1-yl)-N-phenethylacetamide] | 15.6 ± 0.3 | <10 | – | – | – | – | – | – | – | –
CC1(C)CCC[C@]2(C)[C@@H](CC(=O)NCCc3ccc(Cl)cc3)[C@](C)(O)CC[C@@H]12 [Compound 11, N-(4-chlorophenethyl)-2-((1R,2R,4aS,8aS)-2-hydroxy-2,5,5,8a-tetramethyldecahydronaphthalen-1-yl)acetamide] | 7 ± 0.1 | <10 | – | > 100 | – | – | – | – | – | –
CC1(C)CCC[C@]2(C)[C@@H](CC(=O)NCCc3ccc(F)cc3)[C@](C)(O)CC[C@@H]12 [Compound 12, N-(4-fluorophenethyl)-2-((1R,2R,4aS,8aS)-2-hydroxy-2,5,5,8a-tetramethyldecahydronaphthalen-1-yl)acetamide] | 11.4 ± 0.1 | <10 | – | > 100 | – | – | – | – | – | –
CC1(C)CCC[C@]2(C)[C@@H](CC(=O)NCCc3cccc(F)c3)[C@](C)(O)CC[C@@H]12 [Compound 13, N-(3-fluorophenethyl)-2-((1R,2R,4aS,8aS)-2-hydroxy-2,5,5,8a-tetramethyldecahydronaphthalen-1-yl)acetamide] | 11.9 ± 0.4 | <10 | 20.8 ± 1.6 | > 50 | – | – | – | – | – | –
CC1(C)CCC[C@]2(C)[C@@H](CC(=O)NCc3ccco3)[C@](C)(O)CC[C@@H]12 [Compound 14, N-(furan-2-ylmethyl)-2-((1R,2R,4aS,8aS)-2-hydroxy-2,5,5,8a-tetramethyldecahydronaphthalen-1-yl)acetamide] | 53.5 ± 1.8 | <10 | 25.2 ± 2.0 | > 100 | very weak antagonist properties | – | – | – | – | –
CC1(C)CCC[C@]2(C)[C@@H](CC(=O)NCc3ccc(-c4ccccc4)cc3)[C@](C)(O)CC[C@@H]12 [Compound 15, N-((1,1′-biphenyl)-4-ylmethyl)-2-((1R,2R,4aS,8aS)-2-hydroxy-2,5,5,8a-tetramethyldecahydronaphthalen-1-yl)acetamide] | > 100 | <10 | – | > 100 | completely devoid of activity | – | – | – | – | –
CC1(C)CCC[C@]2(C)[C@@H](CC(=O)NCCCn3ccnc3)[C@](C)(O)CC[C@@H]12 [Compound 16, N-(3-(1H-imidazol-1-yl)propyl)-2-((1R,2R,4aS,8aS)-2-hydroxy-2,5,5,8a-tetramethyldecahydronaphthalen-1-yl)acetamide] | > 100 | <10 | – | > 100 | complete loss of activity | – | – | – | – | –
CC1(C)CCC[C@]2(C)[C@@H](CC(=O)OCc3ccc(Cl)c(Cl)c3)[C@](C)(O)CC[C@@H]12 [Compound 19, 3,4-dichlorobenzyl 2-((1R,2R,4aS,8aS)-2-hydroxy-2,5,5,8a-tetramethyldecahydronaphthalen-1-yl)acetate] | > 100 | <10 | 17.5 ± 2.7 | > 100 | completely devoid of activity | – | – | – | – | –
COC(=O)CC1C(C)(O)CCC2C(C)(C)CCCC21C (stereo not drawn) [Compound 20] | > 100 | <10 | – | > 100 | inactive | – | – | – | inactive | –
CC1(C)CCCC2(C)C1CCC(C)(O)C2CCO (stereo not drawn) [Compound 21] | > 100 | <10 | – | > 100 | unable to modulate either channel; also recorded: inactive | – | – | – | unable to modulate either channel | –
CC1(C)CCC[C@]2(C)[C@@H](CCOC(=O)c3ccc4c(c3)OCO4)[C@](C)(O)CC[C@@H]12 [Compound 22, 2-((1R,2R,4aS,8aS)-2-Hydroxy-2,5,5,8a-tetramethyldecahydronaphthalen-1-yl)ethyl Benzo[d][1,3]dioxole-5-carboxylate] | – | <10 | – | > 100 | – | – | – | 155 to 156 | – | –
CC1(C)CCC[C@]2(C)[C@@H](CCOC(=O)CCCc3cccs3)[C@](C)(O)CC[C@@H]12 [Compound 24, 2-((1R,2R,4aS,8aS)-2-hydroxy-2,5,5,8a-tetramethyldecahydronaphthalen-1-yl)ethyl 4-(thiophen-2-yl)butanoate] | > 100 | <10 | – | > 100 | – | – | – | – | – | –
CC1(C)CCC[C@]2(C)[C@@H](CCOCc3cccc(Cl)c3)[C@](C)(O)CC[C@@H]12 [Compound 25, (1R,2R,4aS,8aS)-1-(2-((3-Chlorobenzyl)oxy)ethyl)-2,5,5,8a-tetramethyldecahydronaphthalen-2-ol] | > 100 | <10 | – | > 100 | inactive | – | – | – | inactive | –
CC(C)C[C@H](NC(=O)c1cc2ccccc2s1)C(=O)N1CCN(C(=O)[C@H](CO)NS(=O)(=O)c2ccc(Cl)cc2Cl)CC1 [GSK1016790A, N-((1S)-1-{[4-((2S)-2-{[(2,4-dichlorophenyl)sulfonyl]amino} -3-hydroxypropanoyl)-1-piperazinyl]carbonyl}-3-methylbutyl)-1-benzothiophene-2-carboxamide, reference compound] | – | – | – | – | – | – | – | – | – | 0.0035
CC1(C)CCC[C@]2(C)[C@H]3CC(=O)O[C@]3(C)CC[C@@H]12 [Scd, (+)-Sclareolide, reference compound] | > 100 | 11.3 ± 0.7 | 12.6 ± 0.5 | > 100 | unable to modulate either channel; also recorded: inactive | > 10 | – | – | unable to modulate either channel | –
